Results taken from article PMC6556873, “Rapid Covalent-Probe Discovery by Electrophile-Fragment Screening” (Journal of the American Chemical Society, 2019).
Read-outs that look alike come from different tables or passages of the source.

Columns and labels:
in vitro [1] = assay: in vitro; parameters: species or system CCD841, HEK293; details: human, hb2 cells, read-out: HB-2 Cells Viability (%)
in vitro [2] = assay: in vitro; parameters: species or system HB2, CCD841; details: human, hek293 cells
in vitro [3] = assay: in vitro; parameters: species or system HB2, HEK293; details: human, ccd841 cells
PCAF = target: T1, PCAF (Homo sapiens, UniProt Q92831); parameters: Intact protein LC/MS covalent labelling, fragments in pools of five, 200 uM each, 4 °C; details: 24 h, 4 °C, pool of five; 200 µM; covalent
T1 construct: gene KAT2B
Protocol: (§1) Incubations were performed at 200 μM for each compound and 2 μM of protein (10 μM for BSA) for 24 h at 4 °C with moderate shaking. Incubation buffers varied among proteins (PBS pH 7.4 for QSOX1 and BSA; 10 mM HEPES pH 7.5, 0.3 M NaCl, 0.5 mM TCEP for PCAF, UPS8, and NUDT7; […]; 10 mM Na2HPO4 pH 7.5 100 mM NaCl 5 mM β-mercaptoethanol for NV3CP; 20 mM Na phosphate pH 7.5 for NNMT; […]. The reaction was stopped by quenching with formic acid, 0.4% final concentration. Each protein was incubated with the electrophilic library in pools of five compounds per well. The pool’s composition maximized the difference in mass between fragments in the same well. Incubations were performed with each fragment at 200 μM, for 24 h at 4 °C, to allow the screening of proteins that are not stable for long time periods at higher temperatures. Following incubation, we used intact protein [compound left out] chromatography/mass spectrometry (LC/MS) to identify the fragments and quantify their labeling (Figure 3A). […] There was good agreement between the percent of labeling of NUDT7 by 100 random individual compounds and that obtained in pools of five (R^2=0.78; Figure S6 and Data set 2 in the Supporting Information).

NUDT7 = target: T2, NUDT7 (Homo sapiens, UniProt P0C024); parameters: Intact protein LC/MS covalent labelling, fragments in pools of five, 200 uM each, 4 °C; details: 24 h, 4 °C, pool of five; 200 µM; covalent
T2 construct: residues 14-235, E. coli, pNIC28-Bsa4, N-terminal His6 tag removed by TEV, construct 26672 Da
Protocol: as §1

BSA = target: T3, BSA (Bos taurus, UniProt P02769); parameters: Intact protein LC/MS covalent labelling, fragments in pools of five, 200 uM each, 4 °C; details: 24 h, 4 °C, pool of five; 200 µM; covalent
T3 construct: gene ALB
Protocol: as §1

T1 sequence (Q92831 whole entry, the tested form may be a part): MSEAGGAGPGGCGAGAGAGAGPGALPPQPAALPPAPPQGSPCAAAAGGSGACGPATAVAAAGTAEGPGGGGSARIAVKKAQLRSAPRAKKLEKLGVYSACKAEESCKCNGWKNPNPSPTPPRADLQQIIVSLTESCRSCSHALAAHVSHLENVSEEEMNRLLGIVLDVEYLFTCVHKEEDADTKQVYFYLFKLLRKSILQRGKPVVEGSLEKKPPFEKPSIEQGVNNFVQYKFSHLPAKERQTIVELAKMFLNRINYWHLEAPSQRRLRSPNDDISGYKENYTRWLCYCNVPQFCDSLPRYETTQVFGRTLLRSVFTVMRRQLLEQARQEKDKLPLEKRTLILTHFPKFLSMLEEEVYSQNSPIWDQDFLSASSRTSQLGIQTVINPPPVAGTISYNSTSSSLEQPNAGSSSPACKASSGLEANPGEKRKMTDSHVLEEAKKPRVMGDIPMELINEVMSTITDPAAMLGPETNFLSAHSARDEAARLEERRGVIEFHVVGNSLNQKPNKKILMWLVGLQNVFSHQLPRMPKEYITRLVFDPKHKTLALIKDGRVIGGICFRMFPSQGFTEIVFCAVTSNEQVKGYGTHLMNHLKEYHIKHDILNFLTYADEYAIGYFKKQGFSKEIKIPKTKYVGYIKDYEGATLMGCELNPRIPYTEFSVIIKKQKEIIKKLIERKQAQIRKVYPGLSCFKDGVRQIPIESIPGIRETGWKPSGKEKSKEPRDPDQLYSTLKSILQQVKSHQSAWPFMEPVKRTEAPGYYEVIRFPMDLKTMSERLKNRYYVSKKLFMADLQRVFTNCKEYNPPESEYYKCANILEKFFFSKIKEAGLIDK
T3 sequence (P02769 whole entry, the tested form may be a part): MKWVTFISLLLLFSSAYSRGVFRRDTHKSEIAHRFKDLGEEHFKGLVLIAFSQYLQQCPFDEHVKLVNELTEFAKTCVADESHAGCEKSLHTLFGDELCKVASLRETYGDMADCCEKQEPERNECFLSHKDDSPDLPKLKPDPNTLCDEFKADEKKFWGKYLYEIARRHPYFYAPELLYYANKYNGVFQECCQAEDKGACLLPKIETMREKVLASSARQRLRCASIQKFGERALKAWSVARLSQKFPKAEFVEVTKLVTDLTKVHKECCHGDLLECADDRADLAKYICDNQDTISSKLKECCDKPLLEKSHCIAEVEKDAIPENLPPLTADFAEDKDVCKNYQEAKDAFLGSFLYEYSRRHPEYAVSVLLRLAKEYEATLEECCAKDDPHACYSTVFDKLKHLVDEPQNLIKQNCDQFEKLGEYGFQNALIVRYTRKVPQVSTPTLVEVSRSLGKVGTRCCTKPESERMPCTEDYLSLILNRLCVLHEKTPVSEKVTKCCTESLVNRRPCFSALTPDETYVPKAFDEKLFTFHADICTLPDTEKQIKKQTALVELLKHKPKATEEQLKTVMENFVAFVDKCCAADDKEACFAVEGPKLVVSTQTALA
T2 sequence (P0C024 14-235): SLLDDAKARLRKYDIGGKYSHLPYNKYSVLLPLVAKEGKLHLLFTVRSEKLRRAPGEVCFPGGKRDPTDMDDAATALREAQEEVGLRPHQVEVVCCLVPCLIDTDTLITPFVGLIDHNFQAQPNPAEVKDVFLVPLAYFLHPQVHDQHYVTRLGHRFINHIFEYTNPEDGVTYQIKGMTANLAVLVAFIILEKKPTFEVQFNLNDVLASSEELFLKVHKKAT

SMILES | viability at 48 h, 10 µM (in vitro [1]) | viability at 48 h, 10 µM (in vitro [2]) | viability at 48 h, 10 µM (in vitro [3]) | PCAF (PCAF) | NUDT7 (NUDT7) | BSA (BSA)
O=C(CCl)N1CCc2cc([N+](=O)[O-])ccc21 [PCM-0102403] | 21.2% | 50.4% | 51.4% | 0 | 0 | 0
O=C(CCl)NCc1ccc(Cl)cc1 [PCM-0102668] | 108% | 83.7% | 112% | 0 | 0 | 0
N#Cc1cnn(-c2ccccc2)c1NC(=O)CCl [PCM-0102225] | 99% | 91% | 81% | 0 | 0.16 | 0
C=CC(=O)NC(C)(C)c1noc(C(C)(C)C)n1 [PCM-0102724] | 95.8% | 113% | 108% | 0 | 0 | 0
O=C(CCl)Nc1ccc2c(c1)OCCO2 [PCM-0102324] | 35.2% | 8.2% | 63.3% | 0 |  | 0
C=CC(=O)NC1c2ccccc2CC12CCOCC2 (centres unmarked) [PCM-0102445] | 103% | 111% | 106% | 0 | 0 | 0
O=C(CCl)Nc1ccc(N2CCCCCC2)cc1 [PCM-0102199] | 7% | 4% | 31.8% | 0 | 0.08 | 0
CC(NC(=O)CCl)C(=O)O (centres unmarked) [PCM-0102990] | 102% | 103% | 115% | 0 | 0 | 0
C=CC(=O)NC(C)c1ccc(C(F)(F)F)nc1Cl (centres unmarked) [PCM-0103053] | 99.6% | 85.5% | 113% | 0 |  | 0
Cc1cc(NC(=O)CCl)n(C)n1 [PCM-0102383] | 64.5% | 31.2% | 54.4% | 0 | 0 | 0
N#Cc1ccsc1NC(=O)CCl [PCM-0102768] | 46.1% | 45.9% | 74.6% | 0 |  | 
CC1CCCCN1C(=O)CCl (centres unmarked) [PCM-0102434] | 89.1% | 71.3% | 82.7% | 0 | 0 | 0
C=CC(=O)NC1(C#N)CCOC1 (centres unmarked) [PCM-0103049] | 99.3% | 115% | 95.7% | 0 | 0 | 0
Cc1cccc([N+](=O)[O-])c1NC(=O)CCl [PCM-0102176] | 85.3% | 77.5% | 71.7% | 0 | 0.22 | 0
Cc1cc(N2CCCC2)ccc1NC(=O)CCl [PCM-0102301] | 47.9% | 40.7% | 78.6% | 0 | 0.24 | 0
C=CC(=O)NC1CCN(C(C)=O)Cc2cc(F)ccc21 (centres unmarked) [PCM-0102635] | 101% | 91.8% | 114% | 0 | 0 | 0
O=C(CCl)Nc1nc(-c2ccco2)cs1 [PCM-0102979] | 44% | 66% | 89.7% | 0 | 0.25 | 0
Cc1ccc(NC(=O)CCl)c(Cl)c1 [PCM-0102408] | 35.9% | 38.1% | 78.1% | 0 | 0.18 | 0
